Data from patent publication US8192962B2, “Processes for detecting toxic substances” (Daikin Industries, Ltd., priority 2001, dated 2012).

Test system: Energy system protein genes
Experiment: DNA chip mRNA expression in yeast, energy system protein genes (Table 4)
Assay type: cell-based, Saccharomyces cerevisiae S288C
In short: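 Ratios compare mRNA levels in stressed and control S. cerevisiae. Each toxicant was applied for two hours to log-phase cultures at 25° C. at a sub-lethal, growth-inhibiting level; fluorescent cDNA (Cy3- or Cy5-dUTP) was hybridized to a genome-wide yeast chip for over 12 h at 65° C.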

Structure (SMILES): O=[N+]([O-])c1cc[n+]([O-])c2ccccc12 [(5), 4-nitroquinolin-N-oxide]
- The level of expressed mRNA in the presence of chemical substance/The level of expressed mRNA in the absence of chemical substance (yeast gene YJR009C): 1.2
- The level of expressed mRNA in the presence of chemical substance/The level of expressed mRNA in the absence of chemical substance (yeast gene YJR048W): 0.8
- The level of expressed mRNA in the presence of chemical substance/The level of expressed mRNA in the absence of chemical substance (yeast gene YJR121W, cells incubated two hours with the chemical substance): 0.8
- The level of expressed mRNA in the presence of chemical substance/The level of expressed mRNA in the absence of chemical substance (yeast gene YJR155W): 0.7
- The level of expressed mRNA in the presence of chemical substance/The level of expressed mRNA in the absence of chemical substance (yeast gene YKL016C, cells incubated two hours with the chemical substance): 1.5
- The level of expressed mRNA in the presence of chemical substance/The level of expressed mRNA in the absence of chemical substance (yeast gene YKL060C, cells incubated two hours with the chemical substance): 1.6
- The level of expressed mRNA in the presence of chemical substance/The level of expressed mRNA in the absence of chemical substance (yeast gene YKL141W, cells incubated two hours with the chemical substance): 1.5
- The level of expressed mRNA in the presence of chemical substance/The level of expressed mRNA in the absence of chemical substance (yeast gene YKL148C, cells incubated two hours with the chemical substance): 0.8
- The level of expressed mRNA in the presence of chemical substance/The level of expressed mRNA in the absence of chemical substance (yeast gene YKR009C, cells incubated two hours with the chemical substance): 1.0
- The level of expressed mRNA in the presence of chemical substance/The level of expressed mRNA in the absence of chemical substance (yeast gene YKR058W, cells incubated two hours with the chemical substance, 25° C., YPD medium): 0.8
- The level of expressed mRNA in the presence of chemical substance/The level of expressed mRNA in the absence of chemical substance (yeast gene YKR097W): 1.1
- The level of expressed mRNA in the presence of chemical substance/The level of expressed mRNA in the absence of chemical substance (yeast gene YLL041C, cells incubated two hours with the chemical substance): 1.6
- The level of expressed mRNA in the presence of chemical substance/The level of expressed mRNA in the absence of chemical substance (yeast gene YLR038C, cells incubated two hours with the chemical substance): 1.8
- The level of expressed mRNA in the presence of chemical substance/The level of expressed mRNA in the absence of chemical substance (yeast gene YLR044C, cells incubated two hours with the chemical substance): 1.7
- The level of expressed mRNA in the presence of chemical substance/The level of expressed mRNA in the absence of chemical substance (yeast gene YLR134W, cells incubated two hours with the chemical substance): 1.3
- The level of expressed mRNA in the presence of chemical substance/The level of expressed mRNA in the absence of chemical substance (yeast gene YLR258W, cells incubated two hours with the chemical substance): 0.9
- The level of expressed mRNA in the presence of chemical substance/The level of expressed mRNA in the absence of chemical substance (yeast gene YLR284C, cells incubated two hours with the chemical substance): 1.6
- The level of expressed mRNA in the presence of chemical substance/The level of expressed mRNA in the absence of chemical substance (yeast gene YLR295C, cells incubated two hours with the chemical substance, 25° C., YPD medium): 2.2
- The level of expressed mRNA in the presence of chemical substance/The level of expressed mRNA in the absence of chemical substance (yeast gene YLR304C, cells incubated two hours with the chemical substance): 0.6
- The level of expressed mRNA in the presence of chemical substance/The level of expressed mRNA in the absence of chemical substance (yeast gene YLR345W): 1.2
- The level of expressed mRNA in the presence of chemical substance/The level of expressed mRNA in the absence of chemical substance (yeast gene YLR354C, cells incubated two hours with the chemical substance): 1.6
- The level of expressed mRNA in the presence of chemical substance/The level of expressed mRNA in the absence of chemical substance (yeast gene YLR377C, cells incubated two hours with the chemical substance): 1.0
- The level of expressed mRNA in the presence of chemical substance/The level of expressed mRNA in the absence of chemical substance (yeast gene YLR395C, cells incubated two hours with the chemical substance): 0.7
- The level of expressed mRNA in the presence of chemical substance/The level of expressed mRNA in the absence of chemical substance (yeast gene YML087C): 0.9
- The level of expressed mRNA in the presence of chemical substance/The level of expressed mRNA in the absence of chemical substance (yeast gene YML120C, cells incubated two hours with the chemical substance): 0.6
- The level of expressed mRNA in the presence of chemical substance/The level of expressed mRNA in the absence of chemical substance (yeast gene YML129C, cells incubated two hours with the chemical substance): 1.7
- The level of expressed mRNA in the presence of chemical substance/The level of expressed mRNA in the absence of chemical substance (yeast gene YMR073C, cells incubated two hours with the chemical substance): 0.8
- The level of expressed mRNA in the presence of chemical substance/The level of expressed mRNA in the absence of chemical substance (yeast gene YMR118C): 1.2
- The level of expressed mRNA in the presence of chemical substance/The level of expressed mRNA in the absence of chemical substance (yeast gene YMR205C, cells incubated two hours with the chemical substance): 1.2
- The level of expressed mRNA in the presence of chemical substance/The level of expressed mRNA in the absence of chemical substance (yeast gene YMR261C, cells incubated two hours with the chemical substance): 0.9
- The level of expressed mRNA in the presence of chemical substance/The level of expressed mRNA in the absence of chemical substance (yeast gene YMR267W, cells incubated two hours with the chemical substance, 25° C., YPD medium): 1.0
- The level of expressed mRNA in the presence of chemical substance/The level of expressed mRNA in the absence of chemical substance (yeast gene YMR323W, cells incubated two hours with the chemical substance): 0.7
- The level of expressed mRNA in the presence of chemical substance/The level of expressed mRNA in the absence of chemical substance (yeast gene YNL071W): 0.6
- The level of expressed mRNA in the presence of chemical substance/The level of expressed mRNA in the absence of chemical substance (yeast gene YNL202W, cells incubated two hours with the chemical substance): 0.9
- The level of expressed mRNA in the presence of chemical substance/The level of expressed mRNA in the absence of chemical substance (yeast gene YNL241C): 0.8
- The level of expressed mRNA in the presence of chemical substance/The level of expressed mRNA in the absence of chemical substance (yeast gene YNL331C): 1.6
- The level of expressed mRNA in the presence of chemical substance/The level of expressed mRNA in the absence of chemical substance (yeast gene YOL086C, cells incubated two hours with the chemical substance): 1.9
- The level of expressed mRNA in the presence of chemical substance/The level of expressed mRNA in the absence of chemical substance (yeast gene YOL165C): 0.9
- The level of expressed mRNA in the presence of chemical substance/The level of expressed mRNA in the absence of chemical substance (yeast gene YOR142W, cells incubated two hours with the chemical substance): 1.4
- The level of expressed mRNA in the presence of chemical substance/The level of expressed mRNA in the absence of chemical substance (yeast gene YOR178C, cells incubated two hours with the chemical substance): 1.0
- The level of expressed mRNA in the presence of chemical substance/The level of expressed mRNA in the absence of chemical substance (yeast gene YOR388C, cells incubated two hours with the chemical substance): 1.3
- The level of expressed mRNA in the presence of chemical substance/The level of expressed mRNA in the absence of chemical substance (yeast gene YPL031C, cells incubated two hours with the chemical substance): 1.5
- The level of expressed mRNA in the presence of chemical substance/The level of expressed mRNA in the absence of chemical substance (yeast gene YPL061W, cells incubated two hours with the chemical substance): 1.6
- The level of expressed mRNA in the presence of chemical substance/The level of expressed mRNA in the absence of chemical substance (yeast gene YPL088W): 1.5
- The level of expressed mRNA in the presence of chemical substance/The level of expressed mRNA in the absence of chemical substance (yeast gene YPL171C): 1.1
- The level of expressed mRNA in the presence of chemical substance/The level of expressed mRNA in the absence of chemical substance (yeast gene YPL240C): 1.3
- The level of expressed mRNA in the presence of chemical substance/The level of expressed mRNA in the absence of chemical substance (yeast gene YPL262W, cells incubated two hours with the chemical substance): 0.6
- The level of expressed mRNA in the presence of chemical substance/The level of expressed mRNA in the absence of chemical substance (yeast gene YPL275W, cells incubated two hours with the chemical substance): 1.2
- The level of expressed mRNA in the presence of chemical substance/The level of expressed mRNA in the absence of chemical substance (yeast gene YPL276W, cells incubated two hours with the chemical substance): 1.5
- The level of expressed mRNA in the presence of chemical substance/The level of expressed mRNA in the absence of chemical substance (yeast gene YPR048W, cells incubated two hours with the chemical substance): 0.9
- The level of expressed mRNA in the presence of chemical substance/The level of expressed mRNA in the absence of chemical substance (yeast gene YPR184W, cells incubated two hours with the chemical substance): 0.9
